{"source": "patent US5607967A", "about": "“Treatment of alzheimer's disease with 5-(tetradecyloxy)-2-furan carboxylic acid” (Merck & Co., Inc., priority 1994, dated 1997)", "type_in_all_cases": "cell-based", "key": {"GR/NUC chimeric receptor": {"molecular_target": "T1, GR/NUC chimeric receptor (Homo sapiens, UniProt Q03181)", "T1 construct": "transfected cells, MMTV-luciferase", "T1 sequence (Q03181 1-441)": "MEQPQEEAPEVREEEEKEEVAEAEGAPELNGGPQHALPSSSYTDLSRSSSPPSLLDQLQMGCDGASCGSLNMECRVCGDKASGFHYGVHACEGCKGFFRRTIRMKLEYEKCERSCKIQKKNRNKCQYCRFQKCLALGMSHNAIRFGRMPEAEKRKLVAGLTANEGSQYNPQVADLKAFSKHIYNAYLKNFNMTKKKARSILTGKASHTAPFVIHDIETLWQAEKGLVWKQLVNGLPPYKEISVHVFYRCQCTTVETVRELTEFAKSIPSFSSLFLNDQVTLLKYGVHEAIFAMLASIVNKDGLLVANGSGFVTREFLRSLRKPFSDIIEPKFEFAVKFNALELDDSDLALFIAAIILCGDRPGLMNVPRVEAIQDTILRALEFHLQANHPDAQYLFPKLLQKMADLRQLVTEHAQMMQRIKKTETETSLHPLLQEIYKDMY", "T1 sequence (P06537 1-792 partner)": "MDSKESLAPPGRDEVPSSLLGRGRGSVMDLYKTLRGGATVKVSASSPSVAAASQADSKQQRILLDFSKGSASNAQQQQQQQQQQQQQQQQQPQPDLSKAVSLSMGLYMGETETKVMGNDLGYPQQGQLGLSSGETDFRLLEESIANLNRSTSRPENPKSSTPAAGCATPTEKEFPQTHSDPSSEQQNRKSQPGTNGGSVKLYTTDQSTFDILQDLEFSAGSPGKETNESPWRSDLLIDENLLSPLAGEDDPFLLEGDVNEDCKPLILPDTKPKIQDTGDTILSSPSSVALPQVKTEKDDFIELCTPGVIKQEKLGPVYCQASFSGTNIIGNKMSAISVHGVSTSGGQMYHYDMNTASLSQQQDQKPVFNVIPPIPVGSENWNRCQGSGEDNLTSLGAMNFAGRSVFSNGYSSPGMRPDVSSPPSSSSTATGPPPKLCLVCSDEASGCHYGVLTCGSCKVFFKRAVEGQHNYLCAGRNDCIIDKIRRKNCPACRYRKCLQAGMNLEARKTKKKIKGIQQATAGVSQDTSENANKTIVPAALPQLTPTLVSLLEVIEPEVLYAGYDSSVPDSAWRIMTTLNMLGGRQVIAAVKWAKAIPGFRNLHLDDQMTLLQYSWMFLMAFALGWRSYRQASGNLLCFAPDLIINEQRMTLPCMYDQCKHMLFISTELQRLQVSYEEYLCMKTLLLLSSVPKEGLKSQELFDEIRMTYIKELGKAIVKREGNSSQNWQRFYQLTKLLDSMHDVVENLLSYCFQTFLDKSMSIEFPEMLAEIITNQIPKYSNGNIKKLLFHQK", "assay": "Ligand dependent transcription assay, GR/NUC chimeric receptor with MMTV-luciferase reporter", "procedure": "Similar hybrid receptors GR/NER, GR/NUC and GR/PPAR, in identical expression plasmid backgrounds were prepared essentially as described for the construction of the GR/mPPAR and GR/NUC chimeric receptors in Schmidt et al., \"Identification of a new member of the steroid hormone receptor superfamily that is activated by a peroxisome proliferator and fatty acids,\" Mol. Endocrinol., 6(10):1634-41, 1992, and in Boie et al., \"Enantioselective activation of the peroxisome proliferator-activated receptor\", J. Biol. Chem. 268(8):5530-4, 1993.\nBriefly, the amino terminal portion of the mouse glucocorticoid receptor (mGR), that includes the DNA binding domain was fused to the putative ligand binding domains of the nuclear receptor NER, hNUC-I (Schmidt et al., 1992), mPPAR (Issenmann and Green, 1990) to form the respective chimeric receptors GR/NER, GR/NUC and GR/PPAR. The GR/NER chimeric receptor was constructed as described for the GR/NUC and GR/PPAR hybrid receptors (Schmidt et al., 1992; Boie et al). The cDNA sequences coding for amino acids Arg^155 and Glu^156 of the NER receptor were converted to the Xho I restriction site, that was later used for the ligation to the GR cDNA sequences that coded for the DNA binding domain. Thus, converting amino acid residues Arg^155 and Glu^156 of NER receptor to amino acid residues Ser^155 and His^156."}, "PC12 cells": {"tested_on": "PC12 cells", "assay": "Neurite differentiation of PC12 cells", "details": "TOFA alone, without NGF"}, "[1]": {"molecular_target": "T2, GR/PPAR chimeric receptor (Mus musculus, UniProt P23204)", "T2 construct": "COS cells, MMTV-luciferase", "T2 sequence (P23204 1-468)": "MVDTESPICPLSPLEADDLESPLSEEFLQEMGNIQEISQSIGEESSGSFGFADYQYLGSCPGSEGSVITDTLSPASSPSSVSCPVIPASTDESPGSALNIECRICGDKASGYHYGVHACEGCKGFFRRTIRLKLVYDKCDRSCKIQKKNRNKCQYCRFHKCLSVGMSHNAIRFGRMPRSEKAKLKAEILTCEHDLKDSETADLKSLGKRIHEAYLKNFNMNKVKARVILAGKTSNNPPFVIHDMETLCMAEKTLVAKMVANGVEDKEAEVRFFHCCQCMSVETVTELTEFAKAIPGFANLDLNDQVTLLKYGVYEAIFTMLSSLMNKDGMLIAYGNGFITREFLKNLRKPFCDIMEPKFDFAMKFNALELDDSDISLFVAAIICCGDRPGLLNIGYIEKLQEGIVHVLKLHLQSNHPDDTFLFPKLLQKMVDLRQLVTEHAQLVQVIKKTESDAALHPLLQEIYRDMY", "T2 sequence (P06537 1-792 partner)": "T1 sequence (P06537 1-792 partner)", "assay": "Ligand dependent transcription assay, GR/PPAR chimeric receptor with MMTV-luciferase reporter", "details": "read-out: Fold of stimulation GR/PPAR"}, "[2]": {"details": "read-out: Fold of stimulation GR/NUC"}}}
{"smiles": "CCCCCCCCCCCCCCOc1ccc(C(=O)O)o1", "note": "[TOFA, 5-(tetradecyloxy)-2-furan carboxylic acid]", "values": [{"measurement": "Expression mediated by GR/NUC", "setting": "GR/NUC chimeric receptor", "result": "stimulated expression"}, {"measurement": "fold induction at 2 µM", "setting": "GR/NUC chimeric receptor; [2]", "result": "1.95 ± 0.14"}, {"measurement": "fold induction at 10 µM", "setting": "GR/NUC chimeric receptor; [2]", "result": "2.85 ± 0.2"}, {"measurement": "fold induction at 50 µM", "setting": "GR/NUC chimeric receptor; [2]", "result": "3.19 ± 0.2"}, {"measurement": "Neurite outgrowth", "setting": "PC12 cells", "result": "did not induce neurite outgrowth"}, {"measurement": "fold induction at 2 µM", "setting": "[1]", "result": "2.89 ± 0.13"}, {"measurement": "fold induction at 20 µM", "setting": "[1]", "result": "5.75 ± 0.14"}]}
